Assay results as given in US20090246265A1, “ABUSE DETERRENT TRANSDERMAL FORMULATIONS OF OPIATE AGONISTS AND AGONIST-ANTAGONISTS” (AllTranz Inc., priority 2008, published 2009).
“Also recorded” adds a separate entry of the source. Where a name gives a salt, the structure may show the parent alone.

Assays:
[1] = Solubility in the pressure sensitive adhesive matrix; format: physicochemical; settings: Durotak Elite 87-900A PSA
Procedure: Thus, the suspension was mixed and poured to 20 mil thickness.
Thus, the suspension and 3 solutions of NTX prodrugs were mixed and poured to 20 mil thickness.
Three patch formulations for testing were prepared. The patch formulations included naltrexone-HCl, naltrexone-HCl coated with cellulose acetate phthalate and an isobutyryl ester prodrug of naltrexone. The naltrexone-HCl and cellulose acetate phthalate complex was prepared using the methods described in Example 2. The patch formulations also included buprenorphine in a concentration of 2% w/w or 20 mg of buprenorphine per […] of pressure sensitive adhesive. […] The PSA admixture was poured onto Scotch PAK 1022 Release Liner 3.0 mil 3M™, spread to an even 20 mil thickness with an 8 path wet film applicator by Gardco®. The matrices were allowed to dry at 40° C. and finally the Cotran 9715 Film 3M™ as a backing membrane was applied.

[2] = In vitro diffusion (permeation and accumulation) studies through human skin, PermeGear flow through diffusion apparatus
[3] = Release of buprenorphine and naltrexone from patch placed in methanol or ethanol; format: physicochemical; settings: patch with 2% buprenorphine
Source text: Methanol and ethanol are two media that could potentially be used to dissolve a patch for the purpose of extracting the opiate in the patch by a potential abuse. Thus, an antagonist complex such as NTX-CAP should release in a rapid manner in order to be able to block the opiates effect if injected or ingested. FIG. 6 is a representative profile of the release characteristics of naltrexone coated with cellulose acetate phthalate in methanol and ethanol.
This ratio corresponds to the amount of naltrexone necessary to cause a narcotic blockade at the opiate receptors.

[4] = Example 7, NTX-CAP and buprenorphine base bi-layer patch
[5] = Example 7, NTX•HCl and buprenorphine base bi-layer patch
[6] = Example 7, NTX•HCl and buprenorphine base bi-layer patch, 24 h
[7] = Example 7, NTX•HCl and buprenorphine base bi-layer patch, after 24 h
[8] = Example 8, NTX-CAP and buprenorphine base bi-layer patch
[9] = Example 8, NTX•HCl and buprenorphine base bi-layer patch, 24 h
[10] = Example 8, NTX•HCl and buprenorphine base bi-layer patch, after 24 h
[11] = Example 8, NTX•HCl and buprenorphine bi-layer patch, n=1

## CO[C@@]12CC[C@@]3(C[C@@H]1[C@](C)(O)C(C)(C)C)[C@H]1Cc4ccc(O)c5c4[C@@]3(CCN1CC1CC1)[C@H]2O5 [BUP from bi-layer, buprenorphine]
[1]
  solubility in pressure sensitive adhesive (matrix): freely soluble
[2]; [4]
  Flux: 0.39 ± 0.05 nmol/cm^2/h
  Lag time: 10.6 ± 0.28 h
[2]; Example 7, NTX-CAP and buprenorphine base bi-layer patch, 24 h
  Cumulative: 9.3 ± 1.2 nmol
[2]; Example 7, NTX-CAP and buprenorphine base bi-layer patch, after 24 h
  Drug in skin: 0.43 ± 0.01 µmol/g
[2]; [5]
  Flux: 0.23 ± 0.06 nmol/cm^2/h
  Lag time: 10.0 ± 2.6 h
  buprenorphine flux, times higher than naltrexone: 11.2 times
[2]; [6]
  Cumulative: 5.5 ± 0.7 nmol
[2]; [7]
  Drug in skin: 0.35 ± 0.01 µmol/g
[2]; [8]
  Cumulative: 24.6 ± 10.8 nmol
  Drug in skin: 0.50 ± 0.04 µmol/g
  Flux: 1.05 ± 0.65 nmol/cm^2/h
  Lag time: 8.2 ± 0.6 h
  total permeation: 11.65 µg
[2]; [9]
  Cumulative: 18.5 nmol
[2]; [10]
  Drug in skin: 0.37 µmol/g
[2]; [11]
  Flux: 0.6 NA* nmol/cm^2/h
  Lag time: 9.5 h

## O=C1CC[C@@]2(O)[C@H]3Cc4ccc(O)c5c4[C@@]2(CCN3CC2CC2)[C@H]1O5 [NTX•HCl, naltrexone hydrochloride]
[1]; hydrochloride
  solubility in pressure sensitive adhesive (matrix): Neither NTX.HCl nor CAP-NTX were soluble; also recorded: not soluble
[1]; listed as naltrexone-HCl, hydrochloride
  solubility in pressure sensitive adhesive (matrix): suspensions
[3]; ethanol, 0 min
  Release ratio of BUP:NTX: 9.9
[3]; ethanol, 10 min
  Release ratio of BUP:NTX: 7.2
[3]; ethanol, 30 min
  Release ratio of BUP:NTX: 4.6
[3]; ethanol, 60 min
  Release ratio of BUP:NTX: 4.1
[3]; methanol, 0 min
  Release ratio of BUP:NTX: 7.8
[3]; methanol, 10 min
  Release ratio of BUP:NTX: 6.5
[3]; methanol, 30 min
  Release ratio of BUP:NTX: 6.5
[3]; methanol, 60 min
  Release ratio of BUP:NTX: 6.1
[2]; [5]
  Flux: 0.02 ± 0.03 nmol/cm^2/h
  Lag time: 14.6 NA* h
[2]; Example 7, NTX•HCl and buprenorphine base bi-layer patch, 24 h, listed as NTX•HCl from bi-layer, hydrochloride
  Cumulative: 0.3 ± 0.5 nmol
[2]; [7]
  Drug in skin: 0.29 ± 0.03 µmol/g
[2]; Example 8, NTX•HCl and buprenorphine base bi-layer patch, 24 h, listed as NTX•HCl from bi-layer, hydrochloride
  Cumulative: 2.3 nmol
[2]; [10]
  Drug in skin: 0.30 µmol/g
[2]; [11]
  Flux: 0.0 NA* nmol/cm^2/h

## O=C1CC[C@@]2(O)[C@H]3Cc4ccc(O)c5c4[C@@]2(CCN3CC2CC2)[C@H]1O5 [naltrexone]
[1]
  solubility in pressure sensitive adhesive (matrix): not soluble
[2]; Example 6, bi-layer patch with NTX only, 24 hours
  Cumulative: 7.3 nmol
[2]; [6]
  Cumulative: 0.3 nmol
[2]; [9]
  Cumulative: 2.3 nmol
